Laboratory results as given in US20230226227A1, “PROSTATE SPECIFIC MEMBRANE ANTIGEN (PSMA) LIGANDS AND USES THEREOF” (ADVANCED ACCELERATOR APPLICATIONS (ITALY) SRL, priority 2019, published 2023).
Where “and” joins values, the source holds several entries; their conditions need not be identical. Equal values may be shown once. Entries after “also recorded” stand apart in the source; their conditions may differ.

Key:
[1] = Behavioral Irwin test after single intravenous administration; format: in vivo, rat
Experimental: The aim of this study was to evaluate the possible effects of ^175Lu-PSMA-R2, at doses of 0.2, 0.6 and 2.0 mg/kg, on general behavior parameters in the rat after intravenous administration, according to the study design in Table 2.
The following parameters were evaluated: mortality, body weight, clinical signs and Irwin test.
The Irwin test was performed at the following intervals after dosing: 5, 15, 30 minutes and 1, 2 and 24 hours.

[2] = Effect on respiration in the unrestrained conscious rat (whole-body plethysmography); format: in vivo; details: single iv 0.2, 0.6, 2 mg/kg; over 4 hours post-injection
Experimental: The aim of this study was to assess the possible effects of 0.2, 0.6 and 2.0 mg/kg ^175LuPSMA-R2 on respiratory function of conscious rats via a whole-body plethysmography method after intravenous administration according to the study design detailed in Table 3.
Inspiratory time, expiratory time, peak inspiratory flow, peak expiratory flow, tidal volume, relaxation time, minute volume, respiratory rate and enhanced pause were continuously recorded from approximately 1 hour before dosing up to 4 hours after dosing. Respiratory […] parameters were reported pre-dose and at 5, 15 and 30 minutes and 1, 1.5, 2, 3 and 4 hours after dosing. Clinical signs were recorded on the day of dosing.

[3] = Effects on cardiovascular function of the conscious telemetered minipig; format: in vivo; details: iv 0.058, 0.175, 0.58 mg/kg
Experimental: The purpose of this study was to investigate the potential effects of ^175Lu-PSMA-R2 on the cardiovascular functions of the conscious telemetered male minipig following intravenous administration at doses of 0.058, 0.175 and 0.583 mg/kg.
The test item or vehicle was administered intravenously into the external auricular vein at a fixed injection rate of 4 mL/min. The dose was administered to each animal at a dose volume of 1 mL/kg body weight.
At 7-day intervals, each animal received the vehicle or one of the three doses of the test item, following the crossover design described in Table 4.
Systolic, diastolic and mean blood pressure (SBP, DBP and MBP), heart rate (HR), body temperature and Lead II electrocardiogram were recorded continuously, from 1 hour before administration up to 24 h after dosing. Haemodynamic and electrocardiographic data were reported at pre-dose and at 5, 15, 30 minutes and 1, 2, 4, 8 and 24 hours post-dose.

[4] = Single dose toxicity study in the minipig; format: in vivo, Göttingen minipigs
Text: A two-week treatment-free period was allowed after administration.
All animals were administrated intravenously. Plasma samples were collected at Day 1 for toxicokinetic analysis.
Mortality, clinical signs, body weight, food consumption, clinical pathology investigations, ophthalmoscopy, ECG evaluations, and macroscopic observations were indexed at necropsy. Then selected organs were weighed and tissues collected.
In addition, plasma samples were collected on Day 1 for toxicokinetic analysis.

[5] = Repeated dose (2 weeks) toxicity and toxicokinetic study in the minipig; format: in vivo, minipigs; details: for Half-life: mean value per sex
Experimental: The tested doses are: 0.058, 0.175 and 0.583 mg/kg/day, that is about 14, 42 and 140 times the PSMA-R2 anticipated human dose.
Each group included 3 male and 3 female minipigs. Groups 1 and 4 included 2 additional animals per gender to be sacrificed after 2 weeks of recovery.
All animals were dosed intravenously once a day for 14 consecutive days.

[6] = test system: Salmonella typhimurium TA1535, TA1537, TA98, TA100; assay: Bacterial mutation assay, Salmonella typhimurium; format: cell-based
Experimental: (§1) The test item ^175Lu-labelled PSMA-R2 solution was examined for the ability to induce gene mutations in tester strains of Salmonella typhimurium and Escherichia coli, as measured by reversion of auxotrophic strains to prototrophy. The five tester strains TA1535, TA1537, TA98, TA100 and WP2 uvrA were used. Experiments were performed both in the absence and presence of metabolic activation, using liver S9 fraction from rats pre-treated with phenobarbital and 5,6-benzoflavone.
(§2) The test item was used as a solution in sodium acetate buffer and all concentrations in this report are expressed in terms of active ingredient. The test item ^175Lu-labelled PSMA-R2 solution was assayed in the toxicity test at a maximum feasible concentration of 1000 µg/plate and at four lower concentrations spaced at approximately half-log intervals: 316, 100, 31.6 and 10.0 µg/plate.
(§3) On the basis of the results obtained in the preliminary toxicity test, in the Main Assay, using the plate incorporation method, the test item was assayed with all tester strains at the following dose levels: 1000, 500, 250, 125 and 62.5 µg/plate. […] Since a clear negative result was obtained, no further experiment was undertaken.

[7] = test system: Escherichia coli WP2 uvrA; assay: Bacterial mutation assay, Escherichia coli; format: cell-based
Experimental: as §1, §2, §3

[8] = Plasma protein binding by ultrafiltration, human plasma; format: in vitro ADME; details: for fu (%) fraction unbound: human plasma
Experimental: (§4) Plasma protein binding of PSMA-R2 and ^175Lu-PSMA-R2 has been determined by ultrafiltration method, after incubation of the compounds in human, mouse, rat and minipig plasma at two different concentrations: 1 and 5 µg/mL.

[9] = Plasma protein binding by ultrafiltration, mouse plasma; format: in vitro ADME
Experimental: as §4

[10] = Plasma protein binding by ultrafiltration, rat plasma; format: in vitro ADME
Experimental: as §4

[11] = Plasma protein binding by ultrafiltration, minipig plasma; format: in vitro ADME
Experimental: as §4

[12] = single iv 0.175, 0.58, 1.75 mg/kg
[13] = daily iv 0.058, 0.175, 0.583 mg/kg/day for 14 days
[14] = 10.0-1000 µg/plate, absence or presence of S9
[15] = 62.5-1000 µg/plate, absence or presence of S9
[16] = absence or presence of S9 metabolism

Structure (SMILES): O=C(O)CCC(NC(=O)NC(CCCCN(Cc1ccc(Br)cc1)C(=O)CCCCCNC(=O)CN1CCN(CC(=O)O)CCN(CC(=O)O)CCN(CC(=O)O)CC1)C(=O)O)C(=O)O.[175Lu] (stereo not drawn) [^175Lu-PSMA-R2]
- Clinical signs ([1]; 6-day observation period): No clinical signs were observed
- Mortality ([1]; single iv 0.2, 0.6 and 2.0 mg/kg): No deaths occurred
- Effects on behavioral, neurologic or autonomic parameters (Irwin) ([1]; single iv 0.2, 0.6 and 2.0 mg/kg, up to 24 h post-dose): did not induce any effects; also recorded: No effects
- Changes in respiratory parameters [2]: No changes of toxicological significance were observed in respiratory parameters recorded over 4 hours post-injection.
- Changes in heart rate, arterial blood pressure or electrocardiographic activity [3]: No relevant changes in heart rate, arterial blood pressure or electrocardiographic activity were observed at the tested doses in conscious mini pigs.
- Hematology and clinical chemistry ([4]; high dose group (1.75 mg/kg)): Some changes in hematology and clinical chemistry were observed in some animals
- Organ weights, macroscopic or microscopic changes [4, 12]: No changes in the organ weights and no treatment-related macroscopic or microscopic changes
- Physical signs, ocular findings, electrocardiographic abnormalities [4, 12]: No treatment-related physical signs, ocular findings, nor electrocardiographic abnormalities
- Toxicity signs ([4]; single iv 0.175, 0.583 and 1.75 mg/kg): did not induce signs of toxicity; also recorded: No relevant treatment-related toxicity signs
- Half-life ([5]; Day 1, female minipigs): 37.8 min
- Half-life ([5]; Day 1, male minipigs): 42.6 min
- Accumulation after daily administration ([5]; Day 1 to Day 14): No relevant accumulation
- Clinical pathology, gross pathology, terminal body weight, absolute and relative organ weight ([5]; any dose): did not reveal notable or treatment-related changes
- Histopathology ([5]; any dose): no histopathology treatment-related modifications
- Body weights and food intake [5, 13]: unaffected by the treatment
- Ophthalmoscopy and electrocardiographic examination [5, 13]: No treatment-related abnormalities
- Physical examination [5, 13]: did not show appreciable changes
- NOAEL ([5]; daily iv for 2 weeks): 0.583 mg/kg/day and 0.58 mg/kg/day
- Increase in systemic exposure (Cmax and AUC0-tlast) with dose ([5]; minipig, in vivo): approximately dose-proportional
- Plasma clearance, dose dependence ([5]; minipig, in vivo): dose-independent
- Treatment-related effects in treated groups compared to controls ([5]; once a day for 2 weeks): No evidence of treatment-related effects
- Toxicity and revertant numbers, preliminary toxicity test [6, 14]: Neither toxicity, nor relevant increases in revertant numbers
- Toxicity and revertant numbers, Main Assay (plate incorporation) [6, 15]: Neither toxicity, nor relevant increases in revertant numbers
- Induction of reverse mutation (conclusion) [6, 16]: does not induce reverse mutation
- Toxicity and revertant numbers, preliminary toxicity test [7, 14]: Neither toxicity, nor relevant increases in revertant numbers
- Toxicity and revertant numbers, Main Assay (plate incorporation) [7, 15]: Neither toxicity, nor relevant increases in revertant numbers
- Induction of reverse mutation (conclusion) [7, 16]: does not induce reverse mutation
- fu (%) fraction unbound ([8]; 1 µg/mL): 43.9± 5.1%
- fu (%) fraction unbound ([8]; 5 µg/mL): 45.0 ± 9.6%
- Plasma protein binding, assessment in words ([8]; human, plasma): non-highly bound
- fu (%) fraction unbound ([9]; 1 µg/mL): 71.1 ± 4.4%
- fu (%) fraction unbound ([9]; 5 µg/mL): 71.0 ± 2.2%
- fu (%) fraction unbound ([10]; 1 µg/mL): 37.4 ± 4.9%
- fu (%) fraction unbound ([10]; 5 µg/mL): 59.8 ± 4.4%
- fu (%) fraction unbound ([11]; 1 µg/mL): 41.1 ± 4.2%
- fu (%) fraction unbound ([11]; 5 µg/mL): 46.1 ± 12.5%
